# Measurements: paper PMC5461819 (Peptides, 2015)
# Where “and” joins values, the source holds several entries; their conditions need not be identical. Identical values can stand only once. Entries after “also recorded” stand apart in the source; their conditions may differ. Like-named read-outs stand apart in the source and are kept apart here.
# Tests used:
# human BRS-3 [1] = target: T1, human BRS-3 (Homo sapiens, UniProt P32247); assay: Binding studies, inhibition of 125I-[D-Tyr6,β-Ala11,Phe13,Nle14]Bn-
# T1 sequence (P32247 1-399): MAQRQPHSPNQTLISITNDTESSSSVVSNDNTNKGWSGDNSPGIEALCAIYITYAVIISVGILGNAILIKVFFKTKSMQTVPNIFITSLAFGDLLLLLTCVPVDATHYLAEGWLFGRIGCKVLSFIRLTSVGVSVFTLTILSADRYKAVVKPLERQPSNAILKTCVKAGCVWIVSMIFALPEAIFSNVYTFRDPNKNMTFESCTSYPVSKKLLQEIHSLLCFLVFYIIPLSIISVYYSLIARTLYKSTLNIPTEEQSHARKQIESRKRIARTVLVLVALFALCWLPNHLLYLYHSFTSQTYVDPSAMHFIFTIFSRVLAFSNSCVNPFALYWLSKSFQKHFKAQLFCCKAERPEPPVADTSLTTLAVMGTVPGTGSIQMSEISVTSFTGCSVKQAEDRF
# human BRS-3 [2] = target: T1, human BRS-3; assay: [3H]Inositol phosphate generation; assay type: cell-based; details: for IC50/ EC50 hBRS-3/BALB: binding IC50 over [3H]IP EC50, hBRS-3/BALB cells, measure of receptor spareness
# human GRPR [3] = target: T2, human GRPR (Homo sapiens, UniProt P30550); assay: [3H]Inositol phosphate generation, hGRPR/BALB cells; assay type: cell-based
# T2 sequence (P30550 whole entry): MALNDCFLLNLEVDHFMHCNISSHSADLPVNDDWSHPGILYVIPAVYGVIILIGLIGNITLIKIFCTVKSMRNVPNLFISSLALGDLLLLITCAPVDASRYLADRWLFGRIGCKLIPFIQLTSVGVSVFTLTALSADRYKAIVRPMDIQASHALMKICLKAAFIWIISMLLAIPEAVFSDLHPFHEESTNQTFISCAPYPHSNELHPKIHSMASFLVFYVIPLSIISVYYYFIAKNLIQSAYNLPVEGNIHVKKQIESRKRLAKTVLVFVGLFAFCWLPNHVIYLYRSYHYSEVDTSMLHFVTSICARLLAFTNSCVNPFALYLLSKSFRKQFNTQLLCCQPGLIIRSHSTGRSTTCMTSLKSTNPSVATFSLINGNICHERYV
# human NMBR [4] = target: T3, human NMBR (Homo sapiens, UniProt P28336); assay: [3H]Inositol phosphate generation, hNMBR/BALB cells; assay type: cell-based
# T3 sequence (P28336 whole entry): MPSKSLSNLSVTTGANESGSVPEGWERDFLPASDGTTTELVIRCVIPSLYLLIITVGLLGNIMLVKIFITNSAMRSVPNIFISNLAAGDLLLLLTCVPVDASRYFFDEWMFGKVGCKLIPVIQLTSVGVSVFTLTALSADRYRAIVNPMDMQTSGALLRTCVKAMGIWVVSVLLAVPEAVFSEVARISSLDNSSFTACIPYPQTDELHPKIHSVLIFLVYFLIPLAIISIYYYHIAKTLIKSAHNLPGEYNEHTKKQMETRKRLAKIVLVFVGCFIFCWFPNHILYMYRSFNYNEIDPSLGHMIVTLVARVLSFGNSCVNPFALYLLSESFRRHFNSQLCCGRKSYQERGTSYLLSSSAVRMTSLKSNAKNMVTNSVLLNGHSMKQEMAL
# rat BRS-3 = target: T4, rat BRS-3 (Rattus norvegicus, UniProt Q8K418); assay: [3H]Inositol phosphate generation, rBRS-3/BALB cells; assay type: cell-based
# T4 sequence (Q8K418 1-399): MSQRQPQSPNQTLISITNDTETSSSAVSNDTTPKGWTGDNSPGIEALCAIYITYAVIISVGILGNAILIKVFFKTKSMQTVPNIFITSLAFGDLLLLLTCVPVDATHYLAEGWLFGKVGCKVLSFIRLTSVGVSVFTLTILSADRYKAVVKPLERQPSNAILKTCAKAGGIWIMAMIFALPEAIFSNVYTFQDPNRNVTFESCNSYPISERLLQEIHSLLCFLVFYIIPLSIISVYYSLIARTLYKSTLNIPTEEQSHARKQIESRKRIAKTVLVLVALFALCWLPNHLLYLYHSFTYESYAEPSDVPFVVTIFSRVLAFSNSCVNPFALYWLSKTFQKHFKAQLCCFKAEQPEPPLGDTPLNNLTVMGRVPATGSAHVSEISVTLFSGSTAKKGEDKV
# rat GRPR [5] = target: T5, rat GRPR (Rattus norvegicus, UniProt P52500); assay: [3H]Inositol phosphate generation, rGRPR/AR42J cells; assay type: cell-based
# T5 sequence (P52500 whole entry): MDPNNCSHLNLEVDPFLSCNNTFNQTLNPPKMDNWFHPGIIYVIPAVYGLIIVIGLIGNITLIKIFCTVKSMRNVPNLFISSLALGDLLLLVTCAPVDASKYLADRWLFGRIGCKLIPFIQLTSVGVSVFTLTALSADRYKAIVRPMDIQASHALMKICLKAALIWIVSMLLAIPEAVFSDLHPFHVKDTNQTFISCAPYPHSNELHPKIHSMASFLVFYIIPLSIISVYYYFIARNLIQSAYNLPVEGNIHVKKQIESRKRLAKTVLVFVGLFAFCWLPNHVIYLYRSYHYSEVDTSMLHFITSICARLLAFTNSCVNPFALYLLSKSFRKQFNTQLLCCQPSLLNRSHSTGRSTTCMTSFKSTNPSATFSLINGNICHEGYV
# rat NMBR [6] = target: T6, rat NMBR (Rattus norvegicus, UniProt P24053); assay: [3H]Inositol phosphate generation, rNMBR/BALB cells; assay type: cell-based
# T6 sequence (P24053 1-390): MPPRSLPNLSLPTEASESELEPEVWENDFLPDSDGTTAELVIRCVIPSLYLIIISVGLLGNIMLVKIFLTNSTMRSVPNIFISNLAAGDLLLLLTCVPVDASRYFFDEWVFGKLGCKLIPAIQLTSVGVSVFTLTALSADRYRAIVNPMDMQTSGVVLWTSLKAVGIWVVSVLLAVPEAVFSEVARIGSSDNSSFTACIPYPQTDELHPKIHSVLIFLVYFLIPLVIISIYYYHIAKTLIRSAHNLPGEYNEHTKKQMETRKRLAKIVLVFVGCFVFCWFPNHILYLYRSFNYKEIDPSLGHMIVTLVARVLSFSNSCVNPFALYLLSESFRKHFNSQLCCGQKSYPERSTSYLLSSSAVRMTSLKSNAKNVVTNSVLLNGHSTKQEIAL
# mouse BRS-3 = target: T7, mouse BRS-3 (Mus musculus, UniProt O54798); assay: [3H]Inositol phosphate generation, mBRS-3/BALB cells; assay type: cell-based
# T7 sequence (O54798 1-399): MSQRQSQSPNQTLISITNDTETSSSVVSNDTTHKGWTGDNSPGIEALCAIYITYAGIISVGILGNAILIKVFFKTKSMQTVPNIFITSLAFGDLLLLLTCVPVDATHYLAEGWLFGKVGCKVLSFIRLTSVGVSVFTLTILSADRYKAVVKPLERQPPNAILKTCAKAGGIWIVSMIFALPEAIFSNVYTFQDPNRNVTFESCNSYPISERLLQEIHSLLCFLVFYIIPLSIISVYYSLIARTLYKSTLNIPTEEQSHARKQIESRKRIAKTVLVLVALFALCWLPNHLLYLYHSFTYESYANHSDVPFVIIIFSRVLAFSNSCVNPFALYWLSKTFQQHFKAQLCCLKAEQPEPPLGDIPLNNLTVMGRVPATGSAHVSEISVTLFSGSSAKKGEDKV
# mouse GRPR [7] = target: T8, mouse GRPR (Mus musculus, UniProt P21729); assay: [3H]Inositol phosphate generation, mGRPR/BALB cells; assay type: cell-based
# T8 sequence (P21729 whole entry): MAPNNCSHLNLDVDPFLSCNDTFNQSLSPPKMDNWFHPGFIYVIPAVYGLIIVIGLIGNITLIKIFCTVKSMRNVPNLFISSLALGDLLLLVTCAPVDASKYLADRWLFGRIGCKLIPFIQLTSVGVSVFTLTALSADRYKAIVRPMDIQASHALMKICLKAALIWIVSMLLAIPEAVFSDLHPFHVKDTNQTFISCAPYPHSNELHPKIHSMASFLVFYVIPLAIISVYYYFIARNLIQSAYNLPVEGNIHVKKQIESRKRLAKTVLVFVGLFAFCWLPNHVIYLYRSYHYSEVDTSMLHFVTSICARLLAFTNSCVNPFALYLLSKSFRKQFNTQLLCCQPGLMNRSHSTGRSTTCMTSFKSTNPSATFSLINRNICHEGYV
# mouse NMBR [8] = target: T9, mouse NMBR (Mus musculus, UniProt O54799); assay: [3H]Inositol phosphate generation, mNMBR/BALB cells; assay type: cell-based
# T9 sequence (O54799 1-390): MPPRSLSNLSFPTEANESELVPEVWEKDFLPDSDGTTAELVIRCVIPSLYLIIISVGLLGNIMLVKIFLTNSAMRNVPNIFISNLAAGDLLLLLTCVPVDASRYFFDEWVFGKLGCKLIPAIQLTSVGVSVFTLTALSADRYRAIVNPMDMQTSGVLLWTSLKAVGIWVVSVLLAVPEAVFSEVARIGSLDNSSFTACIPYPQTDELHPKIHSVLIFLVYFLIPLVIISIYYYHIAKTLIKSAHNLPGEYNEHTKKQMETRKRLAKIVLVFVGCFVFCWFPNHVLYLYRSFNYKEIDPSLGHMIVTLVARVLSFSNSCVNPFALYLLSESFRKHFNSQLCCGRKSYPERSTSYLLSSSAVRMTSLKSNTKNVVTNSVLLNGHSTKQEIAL
# human GRPR [9] = target: T2, human GRPR; assay: Binding studies, hGRPR/BALB cells
# human NMBR [10] = target: T3, human NMBR; assay: Binding studies, hNMBR/BALB cells
# rat GRPR [11] = target: T5, rat GRPR; assay: Binding studies, rGRPR/AR42J cells
# rat NMBR [12] = target: T6, rat NMBR; assay: Binding studies, rNMBR/BALB cells
# mouse GRPR [13] = target: T8, mouse GRPR; assay: Binding studies, mGRPR/BALB cells
# mouse NMBR [14] = target: T9, mouse NMBR; assay: Binding studies, mNMBR/BALB cells
# [15] = read-out: EC50 Human BRS-3 hBRS-3/BALB, [3H]IP production, 60 min, 37°C
# [16] = read-out: EC50 Human GRPR hGRPR/BALB, [3H]IP production, 60 min, 37°C
# [17] = read-out: EC50 Human NMBR hNMBR/BALB, [3H]IP production, 60 min, 37°C
# [18] = read-out: EC50 Rat BRS-3 rBRS-3/BALB, [3H]IP production, 60 min, 37°C
# [19] = read-out: EC50 Rat GRPR rGRPR/AR42J, [3H]IP production, 60 min, 37°C
# [20] = read-out: EC50 Rat NMBR rNMBR/BALB, [3H]IP production, 60 min, 37°C
# [21] = read-out: EC50 Mouse BRS-3 mBRS-3/BALB, [3H]IP production, 60 min, 37°C
# [22] = read-out: EC50 Mouse GRPR mGRPR/BALB, [3H]IP production, 60 min, 37°C
# [23] = read-out: EC50 Mouse NMBR mNMBR/BALB, [3H]IP production, 60 min, 37°C
SMILES,EC50 (human BRS-3 [2]; [15]),EC50 (human GRPR [3]; [16]),EC50 (human NMBR [4]; [17]),less potent than MK-5046 (rat BRS-3; rBRS-3/BALB cells),EC50 (rat BRS-3; [18]),EC50 (rat GRPR [5]; [19]),EC50 (rat NMBR [6]; [20]),less potent than MK-5046 (mouse BRS-3; mBRS-3/BALB cells),EC50 (mouse BRS-3; [21]),EC50 (mouse GRPR [7]; [22]),EC50 (mouse NMBR [8]; [23]),IC50/ EC50 hBRS-3/BALB (human BRS-3 [2]),IC50 (human BRS-3 [1]),IC50 (human GRPR [9]),IC50 (human NMBR [10]),IC50 (rat GRPR [11]),IC50 (rat NMBR [12]),IC50 (mouse GRPR [13]),IC50 (mouse NMBR [14]),EC50 (human BRS-3 [2]),further results
"Cc1ccc(Oc2cccc(CC(=O)N3CCNc4nc(C(F)(F)F)ccc4[C@H]3CC(=O)O)c2)cn1 [9F, [(5R)-4-((3-[(6-methylpyridin-3-yl)oxy]phenyl)acetyl)-8-(trifluoromethyl)-2,3,4,5-tetrahydro-1H-pyrido[2,3-e][1, 4]diazepin-5-yl]acetic acid]",39 nM,> 3000 nM,> 3000 nM,8 fold,295 ± 0.5 nM,> 3000 nM,> 3000 nM,5 fold,86.8 ± 0.8 nM,> 3000 nM,> 3000 nM,,,,,,,,,,"lower affinity compared with 9G (human BRS-3 [1]; hBRS-3/BALB cells): 1.7-13 fold; lower potency than 9G or 9D (human BRS-3 [2]; hBRS-3/BALB cells): 4.3 fold; EC50 (human BRS-3 [2]; read-out: EC50 Human BRS-3 hBRS-3/BALB, [3H]IP production, 60 min, 37°C, listed as 9 F): 39.6 ± 1 nM; lower potency than 9G and 3F (rat BRS-3; rBRS-3/BALB cells): 7.8 fold; lower potency compared to 9D or 9G (mouse BRS-3; mBRS-3/BALB cells): 4.3 fold"
"CC(C)COc1cccc(CC(=O)N2CCNc3nc(C(F)(F)F)ccc3[C@H]2CC(=O)O)c1 [9G, [(5R)-4-([3-(2-methylpropoxy)phenyl]acetyl)-8-(trifluoromethyl)-2,3,4,5-tetrahydro-1H-pyrido[2,3-e][1, 4]diazepin-5-yl]acetic acid]",9 nM,> 3000 nM,> 3000 nM,165 fold,37.9 ± 0.8 nM,> 3000 nM,> 3000 nM,3.5–3.8 fold and 4 fold,20.1 ± 0.9 nM,> 3000 nM,> 3000 nM,7.6,,,,,,,,,"affinity greater than MK-5046 (human BRS-3 [1]; hBRS-3/BALB cells): 1.5 fold; EC50 (human BRS-3 [2]; read-out: EC50 Human BRS-3 hBRS-3/BALB, [3H]IP production, 60 min, 37°C, listed as 9 G): 9.2 ± 0.39 nM"
"O[C@@](Cc1nc(CC2(C(F)(F)F)CC2)c[nH]1)(c1ccc(-n2cccn2)cc1)C(F)(F)F [MK-5046, (2S)-1,1,1-trifluoro-2-[4-(1H-pyrazol-1-yl)phenyl]-3-(4-[[1-(trifluoromethyl)cyclopropyl]methyl]-1H-imidazol-2-yl)propan-2-ol]",,,,,,,,,,,,11.7 and 11.72,102 ± 2 nM,> 3000 nM,> 3000 nM,> 3000 nM,> 3000 nM,> 3000 nM,> 3000 nM,8.7 ± 0.47 nM,"maximal stimulated [3H]IP value (human BRS-3 [2]; hBRS-3/BALB cells, 1 μM, n=13): 70,268 ± 4,912 dpm; efficacy for activating PLC (human BRS-3 [2]; human BRS-3 cells): full efficacious; also recorded: fully efficacious; increase on activating PLC (human BRS-3 [2]; human BRS-3 containing cells): 3.8 fold; EC50 (human GRPR [3]): > 3000 nM; EC50 (human NMBR [4]): > 3000 nM; EC50 (rat BRS-3): 0.23 ± 0.08 nM; maximal stimulation of [3H]IP (rat BRS-3; rBRS-3/BALB cells, 1 μM, n=7): 21,812 ± 1,721 dpm; more potent in rBRS-3 than in hBRS-3 (rat BRS-3; rBRS-3 versus hBRS-3): 38 fold; more potent in rBRS-3 than in mBRS-3 (rat BRS-3; rBRS-3 versus mBRS-3): 22 fold; efficacy for activating PLC (rat BRS-3; rat BRS-3 cells): full efficacious; also recorded: fully efficacious; increase on activating PLC (rat BRS-3; rat BRS-3 containing cells): 5.8 fold; EC50 (rat GRPR [5]): > 3000 nM; EC50 (rat NMBR [6]): > 3000 nM; EC50 (mouse BRS-3): 5.24 ± 0.36 nM; maximal stimulation of [3H]IP (mouse BRS-3; mBRS-3/BALB cells, 1 μM, n=3): 62,992 ± 9,298 dpm; efficacy for activating PLC (mouse BRS-3; mouse BRS-3 cells): full efficacious; also recorded: fully efficacious; increase on activating PLC (mouse BRS-3; mouse BRS-3 containing cells): 3.9 fold; EC50 (mouse GRPR [7]): > 3000 nM; EC50 (mouse NMBR [8]): > 3000 nM"
"CSCC[C@H](NC(=O)[C@H](Cc1ccccc1)NC(=O)[C@H](Cc1c[nH]cn1)NC(=O)CNC(=O)[C@@H](NC(=O)[C@H](C)NC(=O)[C@H](Cc1c[nH]c2ccccc12)NC(=O)[C@H](CC(C)C)NC(=O)[C@H](CC(N)=O)NC(=O)CN)[C@@H](C)O)C(N)=O [NMB, neuromedin B]",,,,,,,,,,,,,> 3000 nM,31.5 ± 2.4 nM,0.6 ± 0.02 nM,80 ± 5 nM,1.21 ± 0.15 nM,170 ± 5 nM,0.6 ± 0.02 nM,> 3000 nM,"lower affinity for rGRPR than for rNMBR (rat GRPR [11]; rat receptors): 66 fold; EC50 (human GRPR [3]): 530 ± 23 nM; EC50 (human NMBR [4]; EC50 Human NMBR hNMBR/BALB, [3H]IP production, 60 min, 37°C): 2.5 nM and 2.52 nM; EC50 (rat BRS-3): > 3000 nM; EC50 (rat GRPR [5]; EC50 Rat GRPR rGRPR/AR42J, [3H]IP production, 60 min, 37°C): 17 nM; EC50 (rat NMBR [6]; EC50 Rat NMBR rNMBR/BALB, [3H]IP production, 60 min, 37°C): 1.6 nM and 1.59 nM; EC50 (mouse BRS-3): > 3000 nM; EC50 (mouse GRPR [7]): 23 ± 8 nM; EC50 (mouse NMBR [8]; EC50 Mouse NMBR mNMBR/BALB, [3H]IP production, 60 min, 37°C): 4.7 nM and 4.73 nM"
